Measurements taken from patent publication US8580526B2, “Methods of using GPR119 receptor to identify compounds which stimulate glucose-dependent insulinotropic peptide secretion” (Arena Pharmaceuticals, Inc., priority 2006, dated 2013).

How the values were obtained:
GPR119 [1] = target: T1, GPR119 (Mus musculus, UniProt Q7TQP3); experiment: Effect of oral GPR119 agonist on blood GIP level in GPR119-deficient (knockout) mice compared to wild-type mice, rodent GIP ELISA; format: in vivo, GPR119-deficient male mice and wild-type littermates; parameters: endogenous in cells; host or cells: whole animal: GPR119-deficient male mice and wild-type littermates, oral dosing; settings: 20 mg/kg per orally, FIG. 2A
T1 sequence (Q7TQP3 1-335): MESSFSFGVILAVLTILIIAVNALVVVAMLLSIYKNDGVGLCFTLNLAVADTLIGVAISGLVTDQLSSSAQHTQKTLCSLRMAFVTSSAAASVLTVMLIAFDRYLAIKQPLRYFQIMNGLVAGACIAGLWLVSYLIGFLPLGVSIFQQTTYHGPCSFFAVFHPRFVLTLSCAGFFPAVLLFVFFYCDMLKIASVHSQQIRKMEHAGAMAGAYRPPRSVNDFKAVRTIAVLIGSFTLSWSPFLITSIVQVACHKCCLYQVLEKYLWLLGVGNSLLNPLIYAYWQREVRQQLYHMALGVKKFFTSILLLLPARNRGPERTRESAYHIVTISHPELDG
Description: A. GPR119-deficient male mice and wild-type littermates were fasted for 18 hours. Mice were administered per orally with vehicle (PET; 80% PEG400, 10% ethanol, 10% Tween80) or with a GPR119 agonist in accordance with the present invention (Compound 1; (2-Fluoro-4-methanesulfonyl-phenyl)-{6-[4-(3-isopropyl-[1,2,4]oxadiazol-5-yl)-piperidin-1-yl]-5-nitro-pyrimidin-4-yl}-amine) at 20 mg/kg, as indicated (n=5). Thirty minutes after treatment, blood (100 microliter) was collected via retro orbital vein of the eye (time 0) followed by a glucose bolus at 3 g/kg (per orally). Five minutes after I delivering glucose, another blood sample (100 microliter) was collected (time 5 minutes). Plasma were collected after centrifugation and GIP levels were determined by using a rodent GIP ELISA kit purchased from Linco Research Laboratory [Rat/Mouse Gastric Inhibitory Polypeptide (Total) ELISA Catalog #EZRMGIP-55K], following instructions provided by the supplier. […]
B. GPR119-deficient male mice and wild-type littermates were fasted for 18 hours. […] Plasma were collected after centrifugation and GIP levels were determined by using a rodent GIP ELISA kit purchased from Linco Research Laboratory [Rat/Mouse Gastric Inhibitory Polypeptide (Total) ELISA Catalog #EZRMGIP-55K], following instructions provided by the supplier. […]

GPR119 [2] = target: T1, GPR119; experiment: Pharmacodynamic analysis of effect of oral GPR119 agonist on blood (plasma total) GIP level in wild-type mice, rodent GIP ELISA; format: in vivo, C57blk/6 male mice; parameters: Effect of Administration of GPR119 Agonist on Blood GIP Level in Wild-Type Mice; endogenous in cells; host or cells: whole animal: C57blk/6 male mice, oral dosing; settings: 20 mg/kg per orally, 30 min before glucose bolus 3 g/kg, FIG. 1A
Description: A. C57blk/6 male mice were fasted for 18 hours, and randomly assigned into fourteen groups with n=6 for each group. Mice were administered per orally with vehicle (PET; 80% PEG400, 10% ethanol, 10% Tween80) or with a GPR119 agonist in accordance with the present invention (Compound 1; (2-Fluoro-4-methanesulfonyl-phenyl)-{6-[4-(3-isopropyl-1,2,4]oxadiazol-5-yl)-piperidin-1-yl]-5-nitro-pyrimidin-4-yl}-amine) at 20 mg/kg, as indicated in FIG. 1A. Thirty minutes after treatment, a glucose bolus at 3 g/kg were delivered per orally, and plasma were collected at 0 (no glucose bolus), 2, 5, 10, 20, 40 and 60 minutes after glucose bolus. Plasma GIP levels were determined by using a rodent GIP ELISA kit purchased from Linco Research Laboratory [Rat/Mouse Gastric Inhibitory Polypeptide (Total) ELISA Catalog #EZRMGIP-55K], following instructions provided by the supplier. […]
B. C57blk/6 male mice were fasted for 18 hours, and randomly assigned into fourteen groups with n=6 for each group. […] Plasma GIP levels were determined by using a rodent GIP ELISA kit purchased from Linco Research Laboratory [Rat/Mouse Gastric Inhibitory Polypeptide (Total) ELISA Catalog #EZRMGIP-55K], following instructions provided by the supplier. […] Mean values of GIP concentration were calculated based on results with six mice in each group and shown as mean±SEM. […]

dependence on GPR119 of the increase of glucose-independent and glucose-dependent level of GIP in the blood (GPR119 [1]; GPR119-deficient vs wild-type mice, time 0 and 5 min after glucose bolus 3 g/kg): functional GPR119 receptor was necessary
plasma total GIP (GPR119 [2]; plasma at 0 (no glucose bolus), 2, 5, 10, 20, 40, 60 min, vs vehicle PET): stimulated plasma total GIP
Structure (SMILES): CC(C)c1noc(C2CCN(c3ncnc(Nc4ccc(S(C)(=O)=O)cc4F)c3[N+](=O)[O-])CC2)n1 [Compound 1, (2-Fluoro-4-methanesulfonyl-phenyl)-{6-[4-(3-isopropyl-[1,2,4]oxadiazol-5-yl)-piperidin-1-yl]-5-nitro-pyrimidin-4-yl}-amine]
plasma total GIP in wild-type mice (GPR119 [1]; blood 30 min after treatment (time 0) and 5 min after glucose bolus 3 g/kg): stimulated plasma total GIP in the wild-type mice
glucose-dependent and glucose-independent level of GIP in the blood (GPR119 [2]; plasma at 0 (no glucose bolus) to 60 min): increased both a glucose-dependent and a glucose-independent level of GIP
